The text below walks through data of patent publication US6656709B1, “Methods of increasing the production of cobalamins using cob gene expression” (priority 1990, dated 2003).

For data set [1], the target named is T1, P. denitrificans NN:DMBI PRT (Sinorhizobium sp, UniProt P29935).
T1 construct: the amino-terminal methionine is definitely excised in vivo by methionine aminopeptidase; made in house; host or cells: Pseudomonas denitrificans SC510 Rif^r carrying plasmid pXL1490B (cobU and cobV amplified)
T1 sequence (P29935 2-338 limits assumed): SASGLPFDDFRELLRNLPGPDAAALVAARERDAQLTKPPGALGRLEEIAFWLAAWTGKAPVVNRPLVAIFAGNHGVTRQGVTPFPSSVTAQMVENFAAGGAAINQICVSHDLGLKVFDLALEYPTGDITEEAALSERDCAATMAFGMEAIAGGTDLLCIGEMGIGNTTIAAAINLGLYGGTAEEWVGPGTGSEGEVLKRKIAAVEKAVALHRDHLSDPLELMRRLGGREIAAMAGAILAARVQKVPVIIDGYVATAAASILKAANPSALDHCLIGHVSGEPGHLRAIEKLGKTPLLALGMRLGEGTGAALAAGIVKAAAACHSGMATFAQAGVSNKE
Nature of the data set: Specificity of NN:DMBI PRT for benzimidazole substrates. The class given is biochemical, Pseudomonas denitrificans. To be noted: NaMN concentration fixed at 2 mM. As for the experimental part:
a) Assay of Nicotinate-nucleotide:dimethylbenzimidazole phosphoribosyltransferase activity (FIG. 5, reaction 5). This example illustrates the assay of an enzymatic activity directly linked to the pathway of biosynthesis of cobalamins. The enzyme in question is nicotinate-nucleotide:dimethylbenzimidazole phosphoribosyl-transferase (NN:DMBI PRT) (EC 2.4.2.21). The fractions containing NN:DMBI PRT activity (approximately 5 units) are incubated at 30° C. for 8 min in 0.1 M glycine-NaOH buffer pH 9.7 (500 μl) in the presence of 1 mM NaMN (nicotinic acid mononucleotide) and 10 μM DMBI. The reaction is then stopped by heating to 80° C. for 10 min, the reaction mixture is diluted with water (4 volumes) and this solution (100 μl) is injected onto a 15-cm Nucleosil 5-C8 HPLC column eluted with a 0.1 M potassium phosphate pH 2.9/acetonitrile (93:7) mixture at a flow rate of 1 ml/min. The α-ribazole 5′-phosphate is detected and quantified by fluorimetry (excitation: 260 nm; emission >370 nm). The unit of enzymatic activity is defined as the quantity of enzyme necessary for generating 1 nmol of α-ribazole 5′-phosphate per hour under these conditions.
d) Specificity of NN:DBI PRT for DBI. […]

In the next data set the target is T2, precorrin-6x reductase (Sinorhizobium sp, UniProt P21920).
T2 construct: the amino-terminal methionine is definitely excised in vivo by methionine aminopeptidase; made in house; host or cells: Pseudomonas denitrificans SC510 Rif^r carrying plasmid pXL253 (8.7-kb EcoRI fragment, cobF to cobM, in pKT230)
Description: Reaction catalysed by precorrin-6x reductase, cofactor dependence. The class given is biochemical, Pseudomonas denitrificans. The method, then: The fractions containing precorrin-6x reductase activity (approximately 0.05 unit, U) are incubated at 30° C. for 60 min in 0.1 M Tris-HCl buffer pH 7.7 (250 μl) in the presence of 1 mM EDTA, 500 μM NADPH, 25 μM [methyl-^3H]SAM (80 μCi/μmol), 4 μM precorrin-6x (Thibaut et al., 1990) and partially purified dihydroprecorrin-6x methylase (0.5 U) (see preparation below). The reaction is then stopped by heating to 80° C. for 5 min and, after centrifugation at 5000×g for 5 min, the supernatant is injected onto a DEAE-Sephadex column (containing 200 μl of gel). The column is then washed extensively with the Tris-HCl buffer, and the compounds bound are eluted with 1 M HCl (4 ml). The radio activity in this eluent is counted by liquid scintillation counting. The unit of enzymatic activity is defined as the quantity of enzyme necessary for reducing 1 nmol of precorrin-6x per h under these conditions.
When the purified enzyme (or an active fraction during purification, or even a crude enzyme extract) is incubated under the conditions of the assay of activity, but in the absence of SAM and of dihydroprecorrin-6x methylase, the product of the reaction can then be purified by HPLC in the system described for the purification of precorrin-6x (see Example 6.1.4.d). […]

For data set [2], the target named is T3, cobalamin-5′-phosphate synthase (Sinorhizobium sp, UniProt P29936).
T3 construct: made in house; host or cells: Pseudomonas denitrificans SC510 Rif^r carrying plasmid pXL1490B (own cobV gene amplified)
Description: Specificity of cobalamin-5′-phosphate synthase. The class given is biochemical, Pseudomonas denitrificans. To be noted: partially purified enzyme. The method, then:
a) Assay of GDP-cobinamide: α-ribazole-5′-phosphate cobinamidephosphotransferase (or cobalamin-5′-phosphate synthase) activity. This example illustrates the assay of an activity directly linked to the pathway of biosynthesis of cobalamines. The enzyme in question is cobalamin-5′-phosphate synthase. The fractions containing the activity (approximately 5 to 10 units) are incubated in darkness at 30° C. in […] buffer pH 9.0 (500 μl) in the presence of 1 mM EDTA, 12.5 mM MgCl2, 50 μM α-ribazole 5′-phosphate and 20 μM GDP-cobinamide [in 5′-deoxy-5′-adenosyl (Ado) or coenzyme form]. After 15 min of incubation, 20 mM potassium cyanide (500 μl) is added and the solution is heated to 80° C. for 10 min. After centrifugation to remove the precipitated matter, the vitamin B12 5′-phosphate present in the supernatant is assayed as described in Example 9. One unit of cobalamin-5′-phosphate synthase is defined as the quantity of enzyme necessary for generating 1 nmol of cobalamine 5′-phosphate per h under the conditions described above.
This experiment illustrates how a P. denitrificans enzymatic activity participating in the pathway of biosynthesis of cobalamines of P. denitrificans can be partially purified. Using the assay described above, the purification of cobalamin 5′-phosphate synthase is carried out. For this purpose, in a typical purification experiment, wet cells (10 g) of strain SC510 Rif^r, into which plasmid pXL1490B has been introduced as described previously, are used. Plasmid pXL1490B is described in FIG. 38: this plasmid corresponds to the 3.85-kb SstI-SstI-BamHI fragment cloned into PKT230. This plasmid carries the P. denitrificans cobU and cobV genes. […] The SC510 Rif^r pXL1490B cells are obtained by culture in PS4 medium supplemented with lividomycin, as described above. […]
c) Specificity of cobalamin-5′-phosphate synthase. […] Intracellular α-ribazole 5′-phosphate and α-ribazole concentrations of 30 and 700 μM, respectively, were measured by HPLC during the production of cobalamins by SC510 Rif^r in PS4 medium under the culture conditions described in Example 6.1.5a).

Data set [3] addresses T4, Methanobacterium ivanovii SUMT (Methanobacterium ivanovii, UniProt P29564).
T4 construct: endogenous in cells; host or cells: Methanobacterium ivanovii DSM2611 (enzyme purified to homogeneity from the natural organism)
T4 sequence (P29564 2-231 limits assumed): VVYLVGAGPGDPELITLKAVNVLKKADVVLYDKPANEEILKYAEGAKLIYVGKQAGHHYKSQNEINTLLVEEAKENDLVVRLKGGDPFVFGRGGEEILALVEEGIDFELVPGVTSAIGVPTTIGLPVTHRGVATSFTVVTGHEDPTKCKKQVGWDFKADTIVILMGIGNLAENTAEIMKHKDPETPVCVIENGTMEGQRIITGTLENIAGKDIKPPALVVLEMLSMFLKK
Nature of the data set: Catalytic properties of purified M. ivanovii SUMT. The class given is biochemical. The method, then: Methanobacterium ivanovii strain DSM2611 is cultured as described (Souillard et al., 1988). Wet cells (12 g) are obtained. The latter are resuspended in 0.1 M Tris-HCl buffer pH 7.6 (80 ml) containing 5 mM DTT and 1 mM EDTA, and sonicated for 1 h 30 min at 4° C. and then centrifuged for 1 h at 50,000 g. Free tetrapyrrole compounds are then cleared from the extract by passage through a small DEAE-Sephadex A25 column set up in the same buffer. The proteins precipitating at between 55 and 75% ammonium sulphate saturation are solubilised in a 0.1 M Tris-HCl pH 7.5, 0.5 mM DTT, 1.7 M ammonium sulphate buffer and injected onto a Phenyl-Superose HR 10/10 (Pharmacia France/SA) column eluted with a decreasing gradient (1.7 M to 0 M with respect to ammonium sulphate). The active fractions are passed through a Sephadex G-25 column equilibrated with 0.1 M Tris-HCl pH 7.5, 0.5 mM DTT, 25% glycerol buffer (buffer A), then injected onto a Mono Q HR 5/5 (Pharmacia France SA) column equilibrated with buffer A and eluted with a KCl gradient of 0 to 0.3 M; this step is repeated a second time under the same conditions. Gel permeation chromatography of the active fraction of the preceding step on Bio-Sil TSK-250 (BioRad France SA) enables a protein which is homogeneous in SDS-PAGE and in RP-HPLC (C-18 pBondapak) to be obtained. The different steps of purification, with their yield, as well as their purification factor, are described in the table below.
As shown in this table, the total purification factor is more than 4,500. Some properties of the pure enzyme have been studied according to methods already described (Blanche et al., 1989). This enzyme does indeed have SUMT activity, i.e. it does indeed catalyse the SAM-dependant transfer of two methyl groups at C-2 and at C-7 of uro'gen III.
The Vmax of M. ivanovii SUMT was determined. It is 1537 U/mg of proteins. This value is greater than that found for P. denitrificans SUMT, already determined under optimal conditions for the reaction (taking account of its inhibition by uro'gen III), 489 U/mg of proteins (Blanche et al., 1989).

T3 sequence (P29936 whole entry): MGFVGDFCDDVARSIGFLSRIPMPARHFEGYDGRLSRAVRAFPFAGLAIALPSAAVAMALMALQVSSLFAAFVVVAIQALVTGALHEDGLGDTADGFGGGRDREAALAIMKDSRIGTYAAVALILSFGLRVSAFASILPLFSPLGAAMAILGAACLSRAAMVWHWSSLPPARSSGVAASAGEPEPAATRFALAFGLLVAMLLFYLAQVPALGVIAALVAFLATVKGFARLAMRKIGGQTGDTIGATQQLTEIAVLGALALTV
T2 sequence (P21920 2-261): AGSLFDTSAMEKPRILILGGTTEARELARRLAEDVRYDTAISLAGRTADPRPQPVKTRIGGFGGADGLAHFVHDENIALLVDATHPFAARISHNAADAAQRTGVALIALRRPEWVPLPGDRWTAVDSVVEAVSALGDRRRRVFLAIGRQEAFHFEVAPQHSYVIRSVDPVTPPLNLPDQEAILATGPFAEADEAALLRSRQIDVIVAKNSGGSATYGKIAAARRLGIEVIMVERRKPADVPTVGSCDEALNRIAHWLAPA

Turning to `Cc1ccc2nc[nH]c2c1` [5-methylbenzimidazole], the “reaction rate compared to the natural substrate (5,6-dimethylbenzimidazole)” value in data set [1] is reported as 92%.
With `c1ccc2[nH]cnc2c1` [Benzimidazole], the “reaction rate compared to the natural substrate (5,6-dimethylbenzimidazole)” value in data set [1] came to 157%.
On to `NC(=O)C1=CN([C@@H]2O[C@H](COP(=O)(O)OP(=O)(O)OC[C@H]3O[C@@H](n4cnc5c(N)ncnc54)[C@H](O)[C@@H]3O)[C@@H](O)[C@H]2O)C=CC1` [NADH], for which the “cofactor for reduction of precorrin-6x” value at precorrin-6x reductase is on record as “NADPH cannot be replaced by NADH”.
In the case of `NC(=O)C1=CN([C@@H]2O[C@H](COP(=O)(O)OP(=O)(O)OC[C@H]3O[C@@H](n4cnc5c(N)ncnc54)[C@H](OP(=O)(O)O)[C@@H]3O)[C@@H](O)[C@H]2O)C=CC1` [NADPH], at precorrin-6x reductase, the “cofactor for reduction of precorrin-6x” value is listed as “strictly NADPH-dependant”.
For the molecule `Cc1cc2ncn([C@H]3O[C@H](COP(=O)(O)O)[C@@H](O)[C@H]3O)c2cc1C` [α-ribazole 5′-phosphate], the Michaelis-Menten constant (Km) (as a rule, the substrate concentration at which the rate is half of its maximum) in data set [2] is about 2.7 µM.
As to `Cc1cc2ncn([C@H]3O[C@H](CO)[C@@H](O)[C@H]3O)c2cc1C` [α-ribazole], the Km in data set [2] came out at 7.8 µM.
With GDP-cobinamide [(Ado)GDP-cobinamide], in data set [2], the Km was 0.9 µM.

B1: M. ivanovii SUMT: SAM:uro'gen III methyltransferase purified from Methanobacterium ivanovii, encoded by corA (protein)
chain: MVVYLVGAGPGDPELITLKAVNVLKKADVVLYDKPANEEILKYAEGAKLIYVGKQAGHHYKSQNEINTLLVEEAKENDLVVRLKGGDPFVFGRGGEEILALVEEGIDFELVPGVTSAIGVPTTIGLPVTHRGVATSFTVVTGHEDPTKCKKQVGWDFKADTIVILMGIGNLAENTAEIMKHKDPETPVCVIENGTMEGQRIITGTLENIAGKDIKPPALVVLEMLSMFLKK
As for B1, the Vmax in data set [3] was 1537 U/mg of proteins.
